Reference: the supplement of paper PMC4628005

Key:
Settings in all cases: drug exposure time: 96 h
17-AAG = compound: C=CCNC1=C2C[C@@H](C)C[C@H](OC)[C@H](O)[C@@H](C)/C=C(\C)[C@H](OC(N)=O)[C@@H](OC)/C=C\C=C(/C)C(=O)NC(=CC1=O)C2=O [17-AAG]
Experimental: (§1)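 Same SRB 96 h IC50 screen on breast cancer cell lines (RPMI 1640 + 10% FBS, collagen I-coated 96-well plates, triplicates, 12 dilutions), for drugs with a different dose range: Bortezomib up to 2e-5 M; Sirolimus and 17-AAG up to 2e-6 M. Sirolimus values at the 2e-6 M top dose are censored.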

Sirolimus = compound: CO[C@H]1C[C@@H]2CC[C@@H](C)[C@@](O)(O2)C(=O)C(=O)N2CCCC[C@H]2C(=O)O[C@H]([C@H](C)C[C@@H]2CC[C@@H](O)[C@H](OC)C2)CC(=O)[C@H](C)/C=C(\C)[C@@H](O)[C@@H](OC)C(=O)[C@H](C)C[C@H](C)/C=C/C=C/C=C/1C [Sirolimus]
Experimental: as §1

Bortezomib = compound: CC(C)C[C@H](NC(=O)[C@H](Cc1ccccc1)NC(=O)c1cnccn1)B(O)O [Bortezomib]
Experimental: as §1

Docetaxel = compound: CC(=O)O[C@@]12CO[C@@H]1C[C@H](O)[C@@]1(C)C(=O)[C@H](O)C3=C(C)[C@@H](OC(=O)[C@H](O)[C@@H](NC(=O)OC(C)(C)C)c4ccccc4)C[C@@](O)([C@@H](OC(=O)c4ccccc4)[C@H]21)C3(C)C [Docetaxel]
Experimental: (§2)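 Breast cancer cell lines were grown in RPMI 1640 with 10% FBS on collagen I-coated 96-well plates and treated for 96 h (from 24 h after seeding) with 12 dilutions per drug, in triplicate. Growth was read by sulforhodamine B total-protein staining (absorbance 570 nm) relative to diluent control, and IC50 was calculated. The top dose was 1e-5 M for most drugs; Bortezomib went to 2e-5 M and Sirolimus and 17-AAG to 2e-6 M[…].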

Serdemetan = compound: c1ccc2c(CCNc3ccc(Nc4ccncc4)cc3)c[nH]c2c1 [Serdemetan]
Experimental: as §2

Decitabine = compound: Nc1ncn([C@H]2C[C@H](O)[C@@H](CO)O2)c(=O)n1 [Decitabine]
Experimental: as §2

Paclitaxel = compound: CC(=O)O[C@H]1C(=O)[C@@]2(C)[C@H]([C@H](OC(=O)c3ccccc3)[C@]3(O)C[C@H](OC(=O)[C@H](O)[C@@H](NC(=O)c4ccccc4)c4ccccc4)C(C)=C1C3(C)C)[C@]1(OC(C)=O)CO[C@@H]1C[C@@H]2O [Paclitaxel]
Experimental: as §2

MI-219 = compound: CC(C)(C)C[C@H]1N[C@@H](C(=O)NCC[C@H](O)CO)[C@H](c2cccc(Cl)c2)[C@@]12C(=O)Nc1cc(Cl)c(F)cc12 [MI-219]
Experimental: as §2

Gefitinib = compound: COc1cc2ncnc(Nc3ccc(F)c(Cl)c3)c2cc1OCCCN1CCOCC1 [Gefitinib]
Experimental: as §2

Sunitinib = compound: CCN(CC)CCNC(=O)c1c(C)[nH]c(/C=C2\C(=O)Nc3ccc(F)cc32)c1C [Sunitinib]
Experimental: as §2

Nutlin-3 = compound: COc1ccc(C2=N[C@@H](c3ccc(Cl)cc3)[C@@H](c3ccc(Cl)cc3)N2C(=O)N2CCNC(=O)C2)c(OC(C)C)c1 [Nutlin-3]
Experimental: as §2

Methotrexate = compound: CN(Cc1cnc2nc(N)nc(N)c2n1)c1ccc(C(=O)N[C@@H](CCC(=O)O)C(=O)O)cc1 [Methotrexate]
Experimental: as §2

Belinostat = compound: O=C(/C=C/c1cccc(S(=O)(=O)Nc2ccccc2)c1)NO [Belinostat]
Experimental: as §2

Quisinostat = compound: Cn1cc(CNCC2CCN(c3ncc(C(=O)NO)cn3)CC2)c2ccccc21 [Quisinostat]
Experimental: as §2

Erlotinib = compound: C#Cc1cccc(Nc2ncnc3cc(OCCOC)c(OCCOC)cc23)c1 [Erlotinib]
Experimental: as §2

Cisplatin = compound: N.N.[Cl][Pt][Cl] [Cisplatin]
Experimental: as §2

Azacitidine = compound: Nc1ncn([C@@H]2O[C@H](CO)[C@@H](O)[C@H]2O)c(=O)n1 [Azacitidine]
Experimental: as §2

Lapatinib = compound: CS(=O)(=O)CCNCc1ccc(-c2ccc3ncnc(Nc4ccc(OCc5cccc(F)c5)c(Cl)c4)c3c2)o1 [Lapatinib]
Experimental: as §2

Sorafenib = compound: CNC(=O)c1cc(Oc2ccc(NC(=O)Nc3ccc(Cl)c(C(F)(F)F)c3)cc2)ccn1 [Sorafenib]
Experimental: as §2

5-Fluorouracil = compound: O=c1[nH]cc(F)c(=O)[nH]1 [5-Fluorouracil]
Experimental: as §2

Panobinostat = compound: Cc1[nH]c2ccccc2c1CCNCc1ccc(/C=C/C(=O)NO)cc1 [Panobinostat]
Experimental: as §2

Tamoxifen = compound: CC/C(=C(\c1ccccc1)c1ccc(OCCN(C)C)cc1)c1ccccc1 [Tamoxifen]
Experimental: as §2

Doxorubicin = compound: COc1cccc2c1C(=O)c1c(O)c3c(c(O)c1C2=O)C[C@@](O)(C(=O)CO)C[C@@H]3O[C@H]1C[C@H](N)[C@H](O)[C@H](C)O1 [Doxorubicin]
Experimental: as §2

Vandetanib = compound: COc1cc2/c(=N/c3ccc(Br)cc3F)nc[nH]c2cc1OCC1CCN(C)CC1 [Vandetanib]
Experimental: as §2

Dasatinib = compound: Cc1nc(Nc2ncc(C(=O)Nc3c(C)cccc3Cl)s2)cc(N2CCN(CCO)CC2)n1 [Dasatinib]
Experimental: as §2

Mitoxantrone = compound: O=C1c2c(O)ccc(O)c2C(=O)c2c(NCCNCCO)ccc(NCCNCCO)c21 [Mitoxantrone]
Experimental: as §2

Tipifarnib = compound: Cn1cncc1[C@@](N)(c1ccc(Cl)cc1)c1ccc2c(c1)c(-c1cccc(Cl)c1)cc(=O)n2C [Tipifarnib]
Experimental: as §2

Vorinostat = compound: O=C(CCCCCCC(=O)Nc1ccccc1)NO [Vorinostat]
Experimental: as §2

Brivanib = compound: Cc1cc2c(F)c(Oc3ncnn4cc(OC[C@@H](C)O)c(C)c34)ccc2[nH]1 [Brivanib]
Experimental: as §2

ARQ197 = compound: O=C1NC(=O)[C@@H](c2cn3c4c(cccc24)CCC3)[C@@H]1c1c[nH]c2ccccc12 [ARQ197]
Experimental: as §2

Row | Test System | IC50 (SRB growth assay) (17-AAG) [nM] | IC50 (SRB growth assay) (Sirolimus) [nM] | IC50 (SRB growth assay) (Bortezomib) [nM] | IC50 (SRB growth assay) (Docetaxel) [nM] | IC50 (SRB growth assay) (Serdemetan) [nM] | IC50 (SRB growth assay) (Decitabine) [nM] | IC50 (SRB growth assay) (Paclitaxel) [nM] | IC50 (SRB growth assay) (MI-219) [nM] | IC50 (SRB growth assay) (Gefitinib) [nM] | IC50 (SRB growth assay) (Sunitinib) [nM] | IC50 (SRB growth assay) (Nutlin-3) [nM] | IC50 (SRB growth assay) (Methotrexate) [nM] | IC50 (SRB growth assay) (Belinostat) [nM] | IC50 (SRB growth assay) (Quisinostat) [nM] | IC50 (SRB growth assay) (Erlotinib) [nM] | IC50 (SRB growth assay) (Cisplatin) [nM] | IC50 (SRB growth assay) (Azacitidine) [nM] | IC50 (SRB growth assay) (Lapatinib) [nM] | IC50 (SRB growth assay) (Sorafenib) [nM] | IC50 (SRB growth assay) (5-Fluorouracil) [nM] | IC50 (SRB growth assay) (Panobinostat) [nM] | IC50 (SRB growth assay) (Tamoxifen) [nM] | IC50 (SRB growth assay) (Doxorubicin) [nM] | IC50 (SRB growth assay) (Vandetanib) [nM] | IC50 (SRB growth assay) (Dasatinib) [nM] | IC50 (SRB growth assay) (Mitoxantrone) [nM] | IC50 (SRB growth assay) (Tipifarnib) [nM] | IC50 (SRB growth assay) (Vorinostat) [nM] | IC50 (SRB growth assay) (Brivanib) [nM] | IC50 (SRB growth assay) (ARQ197) [nM]
1 | HCC 202 | 49.5 | 5.17 | 1.51 | 1.72 | 5010 | > 10000 | 4.3 | > 10000 | 8050 | > 10000 | > 10000 | 47.6 | 487 | 6.54 | 6060 | > 10000 | 4630 | 199 | 5170 | 7370 | 16.7 | > 10000 | 76.5 | 3780 | 1200 | 213 | > 10000 | 1130 | > 10000 | 427
2 | MPE 600 | 104 | 1.52 | 5.48 | 1.15 | 2260 | 595 | 2.51 | 2050 | 4260 | 6560 | 4450 | 31 | 379 | 14.8 | 8850 | > 10000 | 548 | 3080 | 1900 | 1250 | 13.8 | > 10000 | 26.6 | 1990 | > 10000 | 8.01 | 631 | 1220 | > 10000 | 859
3 | MDA-MB 468 | 745 | 2.22 | 4.31 | 0.515 | 837 | 77.7 | 1.56 | > 10000 | 990 | 2940 | > 10000 | 7.54 | 436 | 9.89 | 1150 | 974 | 2340 | 762 | 4530 | 5280 | 14.9 | 4940 | 9.63 | 1990 | > 10000 | 4.09 | 77 | 1030 | > 10000 | 222
4 | MDA-MB 361 | 41.4 | 0.259 | 6.68 | 1.41 | 3950 | > 10000 | 4.81 | > 10000 | 4600 | > 10000 | > 10000 | 729 | 469 | 3.95 | 3870 | > 10000 | > 10000 | 499 | 5770 | > 10000 | 8.08 | 8840 | 67 | 4370 | 6020 | 25.9 | 2210 | 723 | > 10000 | 417
5 | HCC 1954 | 26.4 | 0.0308 | 5.29 | 0.37 | 1280 | 1650 | 1.37 | > 10000 | 435 | 5340 | > 10000 | 10.2 | 142 | 7.36 | 361 | > 10000 | 807 | 182 | 5510 | 2490 | 9.53 | 5420 | 11.1 | 894 | 2290 | 8.2 | 449 | 452 | 5340 | 205
6 | HCC 1806 | 53.6 | > 2000 | 5.96 | 0.597 | 826 | 1190 | 1.97 | > 10000 | 513 | 4990 | > 10000 | 2.99 | 216 | 8.95 | 327 | > 10000 | > 10000 | 589 | 5250 | 5080 | 15.8 | 5990 | 20.8 | 580 | 178 | 20.1 | 263 | 632 | > 10000 | 501
7 | MCF 7 | 93.4 | 58.2 | 8.35 | 1.12 | 1690 | 472 | 1.79 | 815 | > 10000 | 4470 | 2010 | 13.9 | 419 | 5.75 | > 10000 | > 10000 | 3730 | 4000 | 5100 | 2210 | 12 | 5690 | 8.94 | > 10000 | > 10000 | 14.8 | 28.6 | 783 | > 10000 | 260
8 | HCC 1569 | 90 | 0.355 | 5.08 | 7.63 | 1800 | > 10000 | 66.2 | > 10000 | 7430 | 6490 | > 10000 | > 10000 | 521 | 7.46 | 3240 | > 10000 | 2620 | 857 | 4350 | 8210 | 14.4 | 5680 | 42.1 | 2070 | 381 | 31.4 | 938 | 1070 | > 10000 | 619
9 | HCC 38 | 72.2 | 0.166 | 5.22 | 0.51 | 443 | 132 | 1.39 | > 10000 | > 10000 | 9910 | > 10000 | 12.3 | 250 | 3.31 | > 10000 | > 10000 | 746 | 5520 | 5260 | 2790 | 6.57 | > 10000 | 5.51 | 5540 | 115 | 1.89 | 294 | 610 | > 10000 | 131
10 | HCC 1143 | 56.6 | 0.62 | 4.31 | 0.306 | 921 | 148 | 1.52 | > 10000 | 1040 | 4730 | > 10000 | 24.7 | 350 | 4.84 | 1080 | > 10000 | 2070 | 2250 | 6060 | 1980 | 11 | 4990 | 16.5 | 1830 | 5110 | 3.93 | 749 | 857 | > 10000 | 481
